Measurements published in paper PMC11003491 (Journal of Enzyme Inhibition and Medicinal Chemistry, 2023).

Experiments:
EGFR-WT = EGFR-WT (Homo sapiens, UniProt P00533); assay: biochemical; details: EGFR WT IC50, five concentrations
HER-2 = HER-2 (Homo sapiens, UniProt P04626); assay: HER-2 Kinase Assay Kit; format: biochemical
[1] = tested on: A549 small lung cancer cell line; assay: MTT cell viability assay, A549; format: cell-based; details: Homo sapiens, A549, 48 h, read-out: A549 IC50, MTT, 48 h, mean of six values
MCF7 breast cells = assay: Apoptosis by Annexin-V-FITC/PI flow cytometry; format: cell-based, human; details: MCF7, compound at IC50, 24 h
breast MCF7 cells = assay: Cell cycle analysis by flow cytometry; format: cell-based, human; details: MCF7, compound at IC50 concentration, 24 h
MCF-7 = details: read-out: cytotoxicity against MCF-7 IC50; cited from earlier work

Sequence of EGFR-WT (P00533 25-1210): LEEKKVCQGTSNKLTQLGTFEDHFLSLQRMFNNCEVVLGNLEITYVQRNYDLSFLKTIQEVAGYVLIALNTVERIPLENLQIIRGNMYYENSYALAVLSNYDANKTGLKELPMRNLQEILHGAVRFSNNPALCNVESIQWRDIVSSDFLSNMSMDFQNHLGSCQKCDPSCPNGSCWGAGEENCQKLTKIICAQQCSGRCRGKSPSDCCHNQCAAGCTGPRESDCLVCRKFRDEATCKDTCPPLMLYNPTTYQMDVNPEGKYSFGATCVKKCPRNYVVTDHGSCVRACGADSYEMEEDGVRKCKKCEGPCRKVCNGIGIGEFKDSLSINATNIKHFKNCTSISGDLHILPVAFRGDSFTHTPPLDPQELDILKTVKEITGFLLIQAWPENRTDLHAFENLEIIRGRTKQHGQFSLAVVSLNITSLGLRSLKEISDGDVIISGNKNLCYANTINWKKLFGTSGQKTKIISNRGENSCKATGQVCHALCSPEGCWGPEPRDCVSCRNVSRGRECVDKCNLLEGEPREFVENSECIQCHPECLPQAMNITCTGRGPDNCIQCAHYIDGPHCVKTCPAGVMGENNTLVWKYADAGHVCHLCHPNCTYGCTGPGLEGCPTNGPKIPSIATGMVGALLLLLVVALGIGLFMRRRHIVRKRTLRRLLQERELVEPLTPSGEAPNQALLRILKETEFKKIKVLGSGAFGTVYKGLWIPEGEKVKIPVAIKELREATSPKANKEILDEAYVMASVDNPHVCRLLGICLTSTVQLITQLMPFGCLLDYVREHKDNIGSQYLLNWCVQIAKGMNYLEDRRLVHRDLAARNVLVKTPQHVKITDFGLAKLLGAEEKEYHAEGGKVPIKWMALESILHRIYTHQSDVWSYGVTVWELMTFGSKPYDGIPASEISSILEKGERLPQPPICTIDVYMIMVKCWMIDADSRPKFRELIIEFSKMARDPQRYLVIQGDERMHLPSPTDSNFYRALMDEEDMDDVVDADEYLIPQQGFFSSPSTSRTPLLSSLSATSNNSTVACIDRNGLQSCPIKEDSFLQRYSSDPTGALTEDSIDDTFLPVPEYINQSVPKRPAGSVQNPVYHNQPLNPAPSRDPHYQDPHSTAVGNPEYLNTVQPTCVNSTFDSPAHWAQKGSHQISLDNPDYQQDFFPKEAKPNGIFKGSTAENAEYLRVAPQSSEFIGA
Sequence of HER-2 (P04626 23-1255): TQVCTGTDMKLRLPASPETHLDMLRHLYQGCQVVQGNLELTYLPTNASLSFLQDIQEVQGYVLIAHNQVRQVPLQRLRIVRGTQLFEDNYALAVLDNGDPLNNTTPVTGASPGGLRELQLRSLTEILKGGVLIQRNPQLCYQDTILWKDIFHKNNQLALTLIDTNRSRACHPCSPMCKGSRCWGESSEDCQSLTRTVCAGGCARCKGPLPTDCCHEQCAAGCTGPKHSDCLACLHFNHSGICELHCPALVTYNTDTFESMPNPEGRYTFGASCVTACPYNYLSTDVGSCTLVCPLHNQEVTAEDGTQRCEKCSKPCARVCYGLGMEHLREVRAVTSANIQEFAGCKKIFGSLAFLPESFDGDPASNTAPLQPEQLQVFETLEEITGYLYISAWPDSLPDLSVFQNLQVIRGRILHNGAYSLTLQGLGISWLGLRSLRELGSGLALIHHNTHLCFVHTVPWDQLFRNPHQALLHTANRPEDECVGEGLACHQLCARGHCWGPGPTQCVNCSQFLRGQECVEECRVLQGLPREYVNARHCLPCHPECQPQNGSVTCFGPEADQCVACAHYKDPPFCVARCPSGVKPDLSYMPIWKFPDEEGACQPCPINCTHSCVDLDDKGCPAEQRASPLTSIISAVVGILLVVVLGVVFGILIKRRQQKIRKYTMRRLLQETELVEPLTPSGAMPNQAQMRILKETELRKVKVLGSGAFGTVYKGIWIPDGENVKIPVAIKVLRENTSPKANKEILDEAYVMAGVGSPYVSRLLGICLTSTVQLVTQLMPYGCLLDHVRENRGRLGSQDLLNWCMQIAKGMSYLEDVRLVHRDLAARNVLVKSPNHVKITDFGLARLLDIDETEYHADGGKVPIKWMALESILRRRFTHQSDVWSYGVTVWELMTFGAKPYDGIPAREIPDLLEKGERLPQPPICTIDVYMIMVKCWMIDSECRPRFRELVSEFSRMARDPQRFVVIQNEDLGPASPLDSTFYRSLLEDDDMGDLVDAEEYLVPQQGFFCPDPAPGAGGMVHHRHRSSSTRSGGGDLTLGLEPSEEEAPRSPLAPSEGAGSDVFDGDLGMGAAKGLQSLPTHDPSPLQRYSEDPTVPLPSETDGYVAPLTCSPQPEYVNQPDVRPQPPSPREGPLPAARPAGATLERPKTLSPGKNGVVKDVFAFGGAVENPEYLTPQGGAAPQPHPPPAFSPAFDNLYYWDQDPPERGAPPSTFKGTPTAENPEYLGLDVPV

Structure (SMILES) | IC50 (EGFR-WT) | IC50 (HER-2) | IC50 [1] | Apoptosis Early (MCF7 breast cells) | Apoptosis Late (MCF7 breast cells) | Necrosis (MCF7 breast cells) | %G0–G1 (breast MCF7 cells) | %G2-M (breast MCF7 cells) | IC50 (MCF-7)
CC(C)Cc1ccc(-c2nn(-c3ccc(S(C)(=O)=O)cc3)cc2/C=N/N=c2\[nH]c(-c3ccc([N+](=O)[O-])cc3)cs2)cc1 [Compound 18f, (E)-2-((E)-((3–(4-isobutylphenyl)-1–(4-(methylsulfonyl)phenyl)-1H-pyrazol-4-yl)methylene)hydrazono)-4–(4-nitrophenyl)-2,3-dihydrothiazole] | 190 nM | 201 nM | 1640 to 14300 nM |  |  |  |  |  | 
COc1ccc(-c2nn(-c3ccc(S(C)(=O)=O)cc3)cc2C=N/N=c2\[nH]c(-c3ccc([N+](=O)[O-])cc3)cs2)cc1 [Compound 18d, (E and Z)-2-((E)-((3–(4-methoxyphenyl)-1–(4-(methylsulfonyl)phenyl)-1H-pyrazol-4-yl)methylene)hydrazono)-4–(4-nitrophenyl)-2,3-dihydrothiazole] | 388 nM | 195 nM |  | 12.58% | 27.45% | 6.52% | 62.43% | 4.39% | 
C#Cc1cccc(Nc2ncnc3cc(OCCOC)c(OCCOC)cc23)c1 [erlotinib] |  |  |  |  |  |  |  |  | 20 nM
COc1ccc(-c2nn(-c3ccc(S(C)(=O)=O)cc3)cc2/C=N/N=c2\[nH]c(-c3ccc(Br)cc3)cs2)cc1 [Compound 18c, (E)-4–(4-bromophenyl)-2-((E)-((3–(4-methoxyphenyl)-1–(4-(methylsulfonyl)phenyl)-1H-pyrazol-4-yl)methylene)hydrazono)-2,3-dihydrothiazole] | 226 nM | 144 nM |  |  |  |  |  |  | 
